How the values were obtained:
[1] = tested on: U118 cells; experiment: Cell proliferation (viable cell count, Trypan blue exclusion); type: cell-based, human; details: cells counted at 3, 6 and 9 days post treatment, dose- and time-dependent
Experimental: (§1) U87 MG and U118 MG (hereafter abbreviated as U87, U118 respectively) human glioblastoma (glioma) cell lines were kindly provided by Dr. Hui Zhang and Dr. Hong Sun. MCF7 (human breast cancer), H1299 (non-small cell lung carcinoma), and PC3 (human prostate cancer) cell lines were obtained from Dr. Giuseppe Pizzorno. Normal human dermal fibroblasts, HDF and normal human mammary epithelial cells, HMEpC, were purchased from Cell Applications (San Diego, Calif.). U118, U87, and MCF7 cultures were grown in high-glucose DMEM supplemented with 10% Fetal Bovine Serum (FBS, HyClone, Waltham, Mass.) and 1% Penicillin/Streptomycin. H1299 was grown in RPMI with 10% FBS and 1% Pen/Strep. PC3 cells were in F12K Medium with 10% FBS and 1% antibiotics. […] Cell number was measured by a hemacytometer (Hausser Scientific, Horsham, Pa.). Cell population doubling time (Td) was calculated from the exponential portion of the growth curve using the equation Td=0.693t/ln(Nt/N0), where t is time, and Nt and N0 represent cell numbers at time t and initial time, respectively (Y. Zhang, et al., Cancer Res 62 (2002) 1205-12). […]
(§2) To examine the effects of resveratrol on glioma cells, 5×10^4 U87 or U118 glioblastoma (Grade IV glioma cell) lines were plated in 60 mm dishes. […] Cells were then trypsinized and cell numbers counted at 3, 6, and 9 days post treatment.

[2] = tested on: U87 cells; experiment: as above; type: cell-based, human; details: cells counted at 3, 6 and 9 days post treatment, dose- and time-dependent
Experimental: as §1, §2

[3] = tested on: U87 cells; experiment: Cellular hypertrophy / cell morphology; type: cell-based, human
Source text: Specifically, resveratrol transformed spindle-shaped glioma cells to enlarged and irregular flatten-shaped ones. The mean diameter of the resveratrol-treated U87 was 5 fold longer than the diameter parallel to the spindle axis of the mock-or vehicle-treated glioma cells. In contrast, mock and vehicle (acetone) treatment had no effect on inducing cellular hypertrophy.
It was then examined whether depletion of RNF20 could induce cellular senescence in glioma cells. Depletion of RNF20 induced similar cellular hypertrophy as observed with resveratrol treatment. Specifically, depletion of RNF20 transformed spindle-shaped glioma cells into extremely enlarged and irregular flatten-shaped ones (data not shown).

[4] = tested on: U118 cells; experiment: Cellular hypertrophy / cell morphology; type: cell-based, human; details: resveratrol treatment
[5] = tested on: U118 glioma cells; experiment: Senescence-associated-β-galactosidase (SA-β-gal) staining; type: cell-based, human; details: resveratrol-induced hypertrophic cells
Experimental: (§3) Senescence-β-galactosidase staining was performed with a kit (Cat. #9860, Cell Signaling, Danvers, Mass.) according to manufacturer's protocol. Briefly, cells in 35 mm well were washed with 2 mL PBS, fixed for 10-15 minutes in 2 mL fixative solution, washed twice with 2 mL PBS, and then incubated in SA-β-gal staining solution overnight at 37° C. To determine whether cellular hypertrophy induced by resveratrol was associated with cellular senescence of glioma cells, expression of senescence-associated-β-galactosidase (SA-β-gal) marker was tested (G. P. Dimri, et al., Proc Natl Acad Sci USA 92 (1995) 9363-7; G. P. Dimri, et al., Biol Signals 5 (1996) 154-62).

[6] = tested on: U87 glioma cells; experiment: as above; type: cell-based, human; details: resveratrol-induced hypertrophic cells
Experimental: as §3

[7] = tested on: U118 cells; experiment: Clonogenic assay (plating efficiency); type: cell-based, human; details: up to 9 days treatment, re-plated 1000-4000 cells, 14 days without resveratrol, dose-dependent
Experimental: (§4) Monolayer cultures of glioma cells were trypsinized and appropriate cell dilutions were re-plated. After 14 days, cultured cells were stained with 0.4% Coomassie Blue G250 in 50% methanol and 5% acetic acid. Colonies of 50 cells or more were counted. Plating efficiencies (PE) were calculated using the formula PE=(number of colonies counted/number of cells seeded)×100%. […] Monolayer cultures of glioma cells were trypsinized and seeded 1000, 2000, and 4000 cells separately in 60 mm culture dishes for incubation without further resveratrol treatment. After two weeks, these cell cultures were stained with 0.4% Coomassie Blue G250 in 50% methanol and 5% acetic acid. Colonies that contained more than 50 cells were counted. Cell clonogenicity was calculated with plating efficiencies (PE) using the formula PE=(number of colonies counted/number of cells seeded)×100%.

[8] = tested on: U87 cells; experiment: Clonogenic assay (plating efficiency); type: cell-based, human; details: up to 9 days treatment, re-plated 1000-4000 cells, 14 days without resveratrol, dose-dependent
Experimental: as §4

[9] = tested on: U118 xenograft; experiment: Growth of human tumor xenograft from resveratrol-pretreated cells; type: in vivo, nude (nu/nu) mice; details: U118 treated 9 days in culture, 2×10^6 viable cells s.c. in nude mice; volume at 125 days post injection
Experimental: (§5) U87 or U118 Cells (2,000,000 in 0.1 ml PBS) were injected subcutaneously in the right flank of the female nude (nu/nu) mice (4-6 weeks old; Charles River Laboratories, Wilmington, Mass.). Five nude mice were used for each group. U87 tumor volume was measured at 27 days post injection while U118 tumor volume at 125 days post injection. When tumors were palpable, they were measured by a Vernier caliper in indicated days after injection. Tumor volume (TV) was calculated as follows: TV (mm^3)=LXW^2/2, where L is the longest dimension of the tumor (in mm), and W is the shortest dimension of the tumor. […] Glioma cells were then trypsinized, and 2×10^6 viable cells (by Trypan blue exclusion assay) were collected in 0.1 ml PBS. These cells were subsequently injected subcutaneously in the right flank of nude mice [female (nu/nu), 4-6 weeks old, 5 mice per group]. When the tumor was palpable, the size was measured with a Vernier caliper. Tumor volume was calculated (TV) using the formula: TV (mm^3)=LXW^2/2, in which L was the longest dimension of the tumor (in mm), and W was the shortest dimension of the tumor.

[10] = tested on: U87 xenograft; experiment: as above; type: in vivo, nude (nu/nu) mice; details: U87 treated 9 days in culture, 2×10^6 viable cells s.c. in nude mice; volume at 27 days post injection
Experimental: as §5

[11] = tested on: mono-ubiquitination of histone H2B at K120 (uH2B); experiment: Western analysis of uH2B, acute (4-hour) resveratrol treatment; type: cell-based, human
Experimental: (§6) For short-term resveratrol treatment, cells in 60 mm dishes were allowed to grow to 40%-50% confluency. Their original media were changed to 5 ml DMEM media containing glucose (4.5 g/L) as the only carbon source (without both L-glutamine and sodium pyruvate). After one hour of media change, cells were collected as non-treated or treated with 5 μL acetone or resveratrol in 5 μL acetone vehicle for 4 hours and then collected for Western analysis. For long-term resveratrol treatment, 3×10^5 of U87 or U118 glioma cells were plated in 100 mm dishes. One day later, the culture media were replaced with fresh medium (10 mL/dish). […]
(§7) Cultured cells were harvested on ice (3-5 min) by scraping in the medium, centrifuged with about 300 relative centrifugal forces (RCF) for 2 minutes. […] Total protein was separated by 12% SDS polyacrylamide gel electrophoresis and analyzed with antibodies to H2B (Millipore, Billerica, Mass.), mono-ubiquitinated H2B (uH2B, MediMabs, Montreal, Quebec, Canada), RNF20 (Abcam, Cambridge, Mass.), p53 (Santa Cruz Biotechnology, Santa Cruz, Calif.). Immunoreactive bands were detected using SuperSignal kit (Thermo Scientific, Waltham, Mass.). […]

[12] = tested on: mono-ubiquitination of histone H2B at K120 (uH2B); experiment: Western analysis of uH2B, chronic (up to 9-day) resveratrol treatment; type: cell-based, human
Experimental: as §6, §7

Question: Which results are given for `Oc1ccc(/C=C/c2cc(O)cc(O)c2)cc1` [resveratrol, 3,4′,5-trihydroxy-trans-stilbene]?
Answer: proliferation of glioma cells (viable cell number) [1]: significantly inhibited proliferation; proliferation of glioma cells (viable cell number) [2]: significantly inhibited proliferation; mean diameter of treated cells versus diameter parallel to the spindle axis of mock- or vehicle-treated cells [3]: 5 fold; cellular hypertrophy (cell volume and cell morphology) ([3]; resveratrol treatment): induced dramatic changes in cell volume and cell morphology; cellular hypertrophy (cell volume and cell morphology) [4]: induced dramatic changes in cell volume and cell morphology; expression of SA-β-gal senescence marker [5]: SA-β-gal was detected; expression of SA-β-gal senescence marker [6]: SA-β-gal was detected; clonogenicity (plating efficiency, colonies of more than 50 cells) [7]: marked decrease in their propensity for forming colonies; clonogenicity (plating efficiency, colonies of more than 50 cells) [8]: marked decrease in their propensity for forming colonies; tumorigenicity (tumor volume) in xenograft model [9]: inhibited the tumorigenecity; tumorigenicity (tumor volume) in xenograft model [10]: inhibited the tumorigenecity; uH2B level (Western) ([11]; 10, 100, 500 μM for 4 h, U87, U118, MCF7, H1299, PC3, HDF, HMEpC): inhibited uH2B within 4 hours in a dose-dependent manner; uH2B level (Western) ([11]; acute incubation, high dose 500 μM): effective in inhibiting uH2B; uH2B level (Western) ([12]; U87, chronic treatment up to 9 days, 6, 20, 60 μM): inhibited uH2B; uH2B level (Western) ([12]; U118, chronic treatment up to 9 days, 6, 10, 20 μM): inhibited uH2B

From patent US20120258117A1, “Methods and compositions for modulation of histone ubiquitination” (priority 2011, published 2012)
